Tests used:
[1] = Pharmacokinetics (PK) in rat, oral dosing, plasma levels of parent drug nicorandil; assay type: in vivo, SD rats
Experimental: Pharmacokinetics (PK) Protocol: Rat
The dosing vehicle used in this study was PEG400. 1, 3, 10 mg/kg oral dosing was done in overnight fasted SD rats and the parent drug generated was monitored. Also presence of modified drug was checked. After oral (PO) dosing blood was collected by serial bleeding at 8 different time points in heparinised tubes. […] Supernatant was kept for analysis. […] Quantitative analysis was done by liquid chromatography tandem mass spectrometer (API3000 LC-MS/MS).

[2] = Pharmacokinetics (PK) in dog, oral dosing; assay type: in vivo, Beagle dog
Experimental: Pharmacokinetics (PK) Protocol: Dog
0.5 ml blood was collected at each time point from the femoral vein via direct stick at defined time points. in tubes containing anticoagulant. […] Supernatant was kept for analysis. […] Quantitative analysis was done by liquid chromatography tandem mass spectrometer (API3000 LC-MS/MS).

[3] = Conversion of Compound A to nicorandil in rat plasma (FIG. 2); assay type: in vitro ADME; settings: various time points

In the case of `C[C@H](NC(=O)OC[n+]1cccc(C(=O)NCCO[N+](=O)[O-])c1)C1CCCCC1` [Compound 8, (S)-1-(((1-cyclohexylethylcarbamoyl)oxy)methyl)-3-((2-(nitroxy)ethyl)carbamoyl)pyridine-1-ium iodide], the “dose linearity of plasma exposure” value ([1]; rat, 1, 3, 10 mg/kg oral) is reported as “displayed dose linearity”, the “modified drug detected in plasma” value ([1]; rat, oral) is reported as “no modified drug was detected” and the “plasma exposure (in words)” value ([1]; rat, oral) is reported as “excellent plasma exposure”. The “plasma exposure compared (AUC and Cmax)” value ([2]; 3 mg/kg oral) was “significantly higher”, the “modified drug detected in plasma” value ([2]; oral) was “no modified drug was detected” and the “plasma exposure (in words)” value ([2]; oral) was “excellent plasma exposure”. For the same molecule, the conversion to nicorandil [3] was “Complete conversion to nicorandil”.

Source: patent US12377082B2, “Nicorandil derivatives” (priority 2019, dated 2025)
